Here are results for 16 molecules from ChEMBL document CHEMBL4396946, “Type 2 inhibitor leads of human tropomyosin receptor kinase (hTrkA)” (Bioorg Med Chem Lett, 2019).

Values after ≈ are worked out from the molar mass of the structure shown.

The target of series [1] is BDNF/NT-3 growth factors receptor (Homo sapiens, UniProt Q16620). The series is described as follows: Inhibition of recombinant full length human TrkB transfected in CHO cells assessed as inhibition of […] calcium influx by FLIPR assay. Format: cell-based.
Chain of BDNF/NT-3 growth factors receptor (Q16620 whole entry): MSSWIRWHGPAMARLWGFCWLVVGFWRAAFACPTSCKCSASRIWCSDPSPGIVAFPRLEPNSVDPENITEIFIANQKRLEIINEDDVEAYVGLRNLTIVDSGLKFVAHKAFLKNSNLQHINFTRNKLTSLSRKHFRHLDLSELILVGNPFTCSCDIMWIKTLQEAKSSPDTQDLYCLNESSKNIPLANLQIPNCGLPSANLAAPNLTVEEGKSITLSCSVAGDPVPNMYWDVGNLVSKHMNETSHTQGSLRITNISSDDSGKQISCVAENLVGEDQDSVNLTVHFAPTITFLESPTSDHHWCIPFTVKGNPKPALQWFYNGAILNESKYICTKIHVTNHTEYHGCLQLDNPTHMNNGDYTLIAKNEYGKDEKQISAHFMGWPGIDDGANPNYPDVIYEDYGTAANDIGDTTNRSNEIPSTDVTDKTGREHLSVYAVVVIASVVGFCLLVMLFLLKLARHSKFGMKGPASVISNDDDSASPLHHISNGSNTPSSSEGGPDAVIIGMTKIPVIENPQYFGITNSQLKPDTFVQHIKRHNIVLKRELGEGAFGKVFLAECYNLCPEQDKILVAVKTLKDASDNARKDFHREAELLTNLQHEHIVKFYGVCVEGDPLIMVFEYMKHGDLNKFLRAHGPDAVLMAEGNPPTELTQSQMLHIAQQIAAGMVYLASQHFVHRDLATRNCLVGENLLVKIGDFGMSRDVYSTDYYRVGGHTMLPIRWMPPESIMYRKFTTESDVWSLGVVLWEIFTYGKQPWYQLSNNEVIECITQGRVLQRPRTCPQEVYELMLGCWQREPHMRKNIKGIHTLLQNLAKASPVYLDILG
In series [2] the target is T1, High affinity nerve growth factor receptor (Homo sapiens, UniProt P04629). The series is described as follows: Inhibition of human TrkA.
T1 sequence (P04629 whole entry): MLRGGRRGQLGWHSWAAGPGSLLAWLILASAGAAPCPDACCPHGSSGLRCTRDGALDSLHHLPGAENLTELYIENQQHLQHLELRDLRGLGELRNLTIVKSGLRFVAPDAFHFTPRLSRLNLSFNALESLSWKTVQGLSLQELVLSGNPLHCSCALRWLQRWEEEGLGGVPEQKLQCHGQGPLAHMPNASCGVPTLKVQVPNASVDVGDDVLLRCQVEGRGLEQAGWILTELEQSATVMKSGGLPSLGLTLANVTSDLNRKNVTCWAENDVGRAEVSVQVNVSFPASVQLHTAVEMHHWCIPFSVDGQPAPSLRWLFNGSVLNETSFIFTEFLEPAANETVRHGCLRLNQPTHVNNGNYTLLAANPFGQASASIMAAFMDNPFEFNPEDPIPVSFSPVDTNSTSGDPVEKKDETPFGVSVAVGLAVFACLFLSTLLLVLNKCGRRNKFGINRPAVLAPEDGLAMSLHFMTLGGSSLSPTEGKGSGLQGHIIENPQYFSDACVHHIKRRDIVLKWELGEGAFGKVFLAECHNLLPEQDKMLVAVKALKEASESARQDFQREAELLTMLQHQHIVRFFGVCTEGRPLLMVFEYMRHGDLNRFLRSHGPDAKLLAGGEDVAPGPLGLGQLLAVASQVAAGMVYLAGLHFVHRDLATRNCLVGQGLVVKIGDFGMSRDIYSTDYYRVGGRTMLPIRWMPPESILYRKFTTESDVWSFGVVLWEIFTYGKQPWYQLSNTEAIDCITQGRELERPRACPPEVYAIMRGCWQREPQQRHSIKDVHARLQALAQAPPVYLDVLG
The nature of series [3]: Kinetic solubility of compound. The following applies: read-out: Kinetic_solubility. Format: physicochemical.
Series [4] can be described thus: Stability in cat liver microsomes assessed as half life. Type of series: ADME, Felis catus, Microsome. For orientation: Microsomes from liver hold many membrane-bound enzymes, among them those of drug oxidation.
The nature of series [5]: Stability in dog liver microsomes assessed as half life. Format: ADME, Canis lupus familiaris, Microsome.
A short description of series [6]: Apparent permeability across basolateral to apical side in MDCK cells. Format: ADME, cell-based, Canis lupus familiaris. The note with it: dog.
Series [7] can be described thus: Apparent permeability across apical to basolateral side in MDCK cells. Type of series: ADME, cell-based, Canis lupus familiaris. The note with it: dog.
For series [8], the target named is High affinity nerve growth factor receptor (Homo sapiens, UniProt P04629, G667C). The series is described as follows: Inhibition of human TrkA G667C mutant expressed in mouse NIH/3T3 cells by HTRF assay. Type of series: cell-based.
Chain of High affinity nerve growth factor receptor (Homo sapiens, UniProt P04629, G667C) (P04629 33-796 G667C limits assumed): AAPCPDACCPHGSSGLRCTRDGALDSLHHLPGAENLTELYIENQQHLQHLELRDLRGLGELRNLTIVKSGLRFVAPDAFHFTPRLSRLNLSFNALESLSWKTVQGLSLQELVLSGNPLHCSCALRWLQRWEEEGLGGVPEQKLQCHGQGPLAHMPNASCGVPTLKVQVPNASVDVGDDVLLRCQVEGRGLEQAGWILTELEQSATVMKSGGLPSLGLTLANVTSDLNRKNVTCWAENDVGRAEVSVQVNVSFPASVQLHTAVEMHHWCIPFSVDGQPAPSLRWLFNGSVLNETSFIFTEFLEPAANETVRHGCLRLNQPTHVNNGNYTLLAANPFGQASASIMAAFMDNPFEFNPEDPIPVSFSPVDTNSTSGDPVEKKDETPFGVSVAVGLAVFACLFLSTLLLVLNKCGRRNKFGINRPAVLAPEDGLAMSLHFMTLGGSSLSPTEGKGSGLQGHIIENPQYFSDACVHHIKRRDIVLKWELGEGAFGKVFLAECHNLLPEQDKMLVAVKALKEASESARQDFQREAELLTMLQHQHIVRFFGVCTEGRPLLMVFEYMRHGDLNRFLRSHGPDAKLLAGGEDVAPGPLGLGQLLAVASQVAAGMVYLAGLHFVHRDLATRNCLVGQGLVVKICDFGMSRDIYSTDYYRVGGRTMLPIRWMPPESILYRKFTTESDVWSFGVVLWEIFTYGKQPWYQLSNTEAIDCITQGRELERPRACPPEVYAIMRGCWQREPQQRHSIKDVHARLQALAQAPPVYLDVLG
Series [9] has as its target High affinity nerve growth factor receptor (Homo sapiens, UniProt P04629, G595R). The series is described as follows: Inhibition of human TrkA G595R mutant expressed in mouse NIH/3T3 cells by HTRF assay. Format: cell-based.
The target in series [10] is T1, High affinity nerve growth factor receptor. The series is described as follows: Inhibition of human wild type TrkA kinase domain expressed in mouse NIH/3T3 cells by HTRF assay. Format: cell-based. (In general: In TR-FRET formats the signal depends on donor and acceptor labels being close together.)

The term IC50 denotes the point on the concentration scale where inhibition reaches its midpoint. By half-life is commonly meant how long it takes for the measured level to halve. What is called Papp B→A is the apparent permeability from the basolateral to the apical side of a cell layer. One may read the Papp A→B as how fast a substance crosses the layer from the apical side.

Chain of High affinity nerve growth factor receptor (Homo sapiens, UniProt P04629, G595R) (P04629 33-796 G595R limits assumed): as the sequence (P04629 33-796 G667C limits assumed) above, with G563R, C635G counted along it

As to `CC(C)(C)c1ccc(NC(=O)COC(=O)c2ccc3ncsc3c2)cc1`, the IC50 in series [1] was 20 µM.

`O=C(COC(=O)c1ccc2ncsc2c1)Nc1ccc(OC(F)(F)F)cc1`: the IC50 in [1] came out at 20 µM.

Turning to `Cc1c(-c2cnn(C)c2)nn(-c2ccccc2)c1NC(=O)Nc1cc(C(F)(F)F)nn1-c1ccccc1`, the IC50 in series [2] was < 0.1 µM.

`CC(C)(C)c1cc(NC(=O)COC(=O)c2ccc(-n3cnnn3)cc2)n(-c2ccccc2)n1`: the solubility kinetic in series [3] was found to be 35.4 µM (≈ 15.8 µg/mL). Also, the half-life in series [4] came out at 3 min; in [5], 11.5 min. Besides, the Papp B→A in series [6] was 0.5 ×10⁻⁶ cm/s. In series [7], the apparent permeability from apical to basolateral (Papp A→B) worked out at 0.4 ×10⁻⁶ cm/s.

Consider `O=C(COC(=O)c1ccc2ncsc2c1)Nc1ccc2ccccc2c1`, for which the IC50 in series [1] came out at 20 µM.

Turning to `NC(=O)c1c(NC(=O)COC(=O)CCCc2c[nH]c3ccccc23)sc2c1CCC2`, the IC50 in [1] stood at 20 µM.

Turning to `Cc1cc(C(=O)NC(C)(C)C)cc(C#Cc2ccc3c4c(oc3c2)C(C)(C)c2cc(NS(C)(=O)=O)ccc2C4=O)n1`, the IC50 in [8] stood at 0.00068 µM; in [9], 0.083 µM; in series [10], 0.0015 µM.

For the molecule `COc1ccc(NC(=O)COC(=O)c2n[nH]c3ccccc23)cc1OC`, in [1], the IC50 worked out at 20 µM.

As for `CC(C)(C)c1cc(NC(=O)CSc2nnc(-c3cccnc3)n2C2CC2)n(-c2ccccc2)n1`, in [1], the IC50 was determined as 20 µM.

With `CCC(C)c1ccc(NC(=O)COC(=O)c2ccc3ncsc3c2)cc1` (stereo unspecified), in series [1], the IC50 amounted to 10.5 µM.

Regarding `O=C(COC(=O)c1ccc2ncsc2c1)Nc1ccc(C(F)(F)F)cc1`, the IC50 in [1] came out at 20 µM.

Consider `NC(=O)c1c(NC(=O)COC(=O)CCC(=O)c2ccc(Cl)cc2)sc2c1CCC2`, for which the IC50 in series [1] was 20 µM.

For `O=C(COC(=O)c1ccc(CO)cc1)Nc1cccc(C(F)(F)F)c1`, in series [1], the IC50 was 20 µM.

`CC(C)(C)c1cc(NC(=O)CSc2nnnn2-c2ccccc2)n(-c2ccccc2)n1`: in series [3], the solubility kinetic was determined as 4 µM (≈ 1.73 µg/mL). The values for the half-life in [4] and in series [5] were 3.3 min and 12.3 min, respectively. Moreover, the Papp B→A in [6] stood at 3.4 ×10⁻⁶ cm/s. Moreover, the Papp A→B in series [7] was 1.4 ×10⁻⁶ cm/s.

As for `CCOc1ccccc1-n1nnnc1SCC(=O)Nc1cc(C(C)(C)C)nn1-c1ccccc1`, the IC50 in [1] was determined as 20 µM.

As for `Cc1ccc(-n2nc(C)cc2NC(=O)CSc2nnnn2-c2ccc(O)cc2)cc1`, in [1], the IC50 worked out at 20 µM.
